From patent US9409905B2, “Antibacterial compounds and methods for use” (PTC THERAPEUTICS, INC., priority 2011, dated 2016)
In brackets after ≈: the same amount, converted by molar mass.

Experiments:
E. coli 25922 = experiment: Antibacterial activity, microbroth dilution MIC (Table 1); type: cell-based, Escherichia coli; details: Escherichia coli; microbroth dilution; control Gram-negative E. coli 25922 strain; read-out: MIC, 25922
In short: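 Growth inhibition by microbroth dilution. MIC = lowest μg/mL with no visible growth. Strain 25922 is the control Gram-negative; BAS849 is hypersensitive.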

[1] = test system: Staphylococcus aureus (S. aureus) 29213; experiment: as above; type: cell-based; details: microbroth dilution, Gram-positive S. aureus 29213, read-out: MIC, 29213
In short: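 Read-out: visual absence of growth. The lowest concentration meeting this gives the MIC, expressed in μg/mL, with microbroth dilution as the method.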

[2] = test system: Escherichia coli (E. coli) BAS849; experiment: as above; type: cell-based; details: microbroth dilution, super sensitive Gram-negative E. coli BAS849, read-out: MIC, BAS849
In short: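 Each strain is exposed to test compound in a microbroth dilution series; visible growth is scored macroscopically, and the lowest growth-free concentration is recorded as MIC in μg/mL.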

E. coli LZ3111 = experiment: Antibacterial activity, MIC, quinolone resistant strain (Table 2); type: cell-based; details: Escherichia coli, LZ3111, read-out: MIC LZ3111
In short: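 Microbroth dilution method; MIC (μg/mL) is the lowest drug concentration preventing macroscopically visible growth under test conditions.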

Structure (SMILES) | MIC (E. coli 25922) | MIC [1] | MIC [2] | MIC (E. coli LZ3111)
CCc1c(-c2ccc3c(c2)cc(CN2CC(N(C)CCN(C)C)C2)n3C)[nH]c(=O)c(C(=O)O)c1O [Cpd 207, 6-(2-((3-((2-(dimethylamino)ethyl)(methyl)amino)azetidin-1-yl)methyl)-1-methyl-1H-indol-5-yl)-5-ethyl-4-hydroxy-2-oxo-1,2-dihydropyridine-3-carboxylic acid] | 12.5 to 150 µg/mL (≈ 26 to 311 µM) | 12.5 to 150 µg/mL (≈ 26 to 311 µM) | 1 to 3.5 µg/mL (≈ 2.08 to 7.27 µM) | 12.5 to 150 µg/mL (≈ 26 to 311 µM)
CCc1c(-c2ccc3c(c2)cc(CN(C)C2CC2)n3C)[nH]c(=O)c(C(=O)O)c1O.Cl [Cpd 212, 6-(2-((cyclopropyl(methyl)amino)methyl)-1-methyl-1H-indol-5-yl)-5-ethyl-4-hydroxy-2-oxo-1,2-dihydropyridine-3-carboxylic acid hydrochloride] | 1 to 3.5 µg/mL | 1 to 3.5 µg/mL | < 1 µg/mL | 12.5 to 150 µg/mL
CCc1c(-c2ccc3c(c2)cc(CNc2ccccc2)n3C)[nH]c(=O)c(C(=O)O)c1O [Cpd 213, 5-ethyl-4-hydroxy-6-(1-methyl-2-((phenylamino)methyl)-1H-indol-5-yl)-2-oxo-1,2-dihydropyridine-3-carboxylic acid] | 12.5 to 150 µg/mL (≈ 29.9 to 359 µM) | 1 to 3.5 µg/mL (≈ 2.4 to 8.38 µM) | < 1 µg/mL | 12.5 to 150 µg/mL (≈ 29.9 to 359 µM)
CCc1c(-c2ccc3c(c2)cc(CN[C@H](C)c2ccccc2)n3C)[nH]c(=O)c(C(=O)O)c1O.Cl [Cpd 215, (R)-5-ethyl-4-hydroxy-6-(1-methyl-2-((1-phenylethylamino)methyl)-1H-indol-5-yl)-2-oxo-1,2-dihydropyridine-3-carboxylic acid hydrochloride] | 1 to 3.5 µg/mL | 1 to 3.5 µg/mL | < 1 µg/mL | 12.5 to 150 µg/mL
CCc1c(-c2ccc3c(c2)cc(CN[C@@H](C)c2ccccc2)n3C)[nH]c(=O)c(C(=O)O)c1O.Cl [Cpd 216, (S)-5-ethyl-4-hydroxy-6-(1-methyl-2-((1-phenylethylamino)methyl)-1H-indol-5-yl)-2-oxo-1,2-dihydropyridine-3-carboxylic acid hydrochloride] | 1 to 3.5 µg/mL | 1 to 3.5 µg/mL | < 1 µg/mL | 12.5 to 150 µg/mL
CCc1c(-c2ccc3c(c2)cc(CNC(C)(C)c2ccccc2)n3C)[nH]c(=O)c(C(=O)O)c1O.Cl [Cpd 217, 5-ethyl-4-hydroxy-6-(1-methyl-2-((2-phenylpropan-2-ylamino)methyl)-1H-indol-5-yl)-2-oxo-1,2-dihydropyridine-3-carboxylic acid hydrochloride] | 1 to 3.5 µg/mL | 1 to 3.5 µg/mL | < 1 µg/mL | 12.5 to 150 µg/mL
CCc1c(-c2ccc3c(c2)cc(CN(C)Cc2ccccc2)n3C)[nH]c(=O)c(C(=O)O)c1O.Cl [Cpd 218, 6-(2-((benzyl(methyl)amino)methyl)-1-methyl-1H-indol-5-yl)-5-ethyl-4-hydroxy-2-oxo-1,2-dihydropyridine-3-carboxylic acid hydrochloride] | 12.5 to 150 µg/mL | 3.5 to 12.5 µg/mL | < 1 µg/mL | 12.5 to 150 µg/mL
CCc1c(-c2ccc3c(c2)cc(CNCC2CCCCC2)n3C)[nH]c(=O)c(C(=O)O)c1O.Cl [Cpd 222, 6-(2-((cyclohexylmethylamino)methyl)-1-methyl-1H-indol-5-yl)-5-ethyl-4-hydroxy-2-oxo-1,2-dihydropyridine-3-carboxylic acid hydrochloride] | < 1 µg/mL | 1 to 3.5 µg/mL | < 1 µg/mL | 12.5 to 150 µg/mL
CCc1c(-c2ccc3c(c2)cc(CN(C)Cc2cccnc2)n3C)[nH]c(=O)c(C(=O)O)c1O.Cl [Cpd 224, 5-ethyl-4-hydroxy-6-(1-methyl-2-((methyl(pyridin-3-ylmethyl)amino)methyl)-1H-indol-5-yl)-2-oxo-1,2-dihydropyridine-3-carboxylic acid hydrochloride] | 1 to 3.5 µg/mL | 3.5 to 12.5 µg/mL | < 1 µg/mL | 12.5 to 150 µg/mL
CCc1c(-c2ccc3c(c2)cc(CN(C)Cc2ccncc2)n3C)[nH]c(=O)c(C(=O)O)c1O.Cl [Cpd 225, 5-ethyl-4-hydroxy-6-(1-methyl-2-((methyl(pyridin-4-ylmethyl)amino)methyl)-1H-indol-5-yl)-2-oxo-1,2-dihydropyridine-3-carboxylic acid hydrochloride] | 3.5 to 12.5 µg/mL | 3.5 to 12.5 µg/mL | < 1 µg/mL | 12.5 to 150 µg/mL
CCc1c(-c2ccc3c(c2)cc(CNC(C)c2ccncc2)n3C)[nH]c(=O)c(C(=O)O)c1O.Cl (centres unmarked) [Cpd 226, 5-ethyl-4-hydroxy-6-(1-methyl-2-((1-(pyridin-4-yl)ethylamino)methyl)-1H-indol-5-yl)-2-oxo-1,2-dihydropyridine-3-carboxylic acid hydrochloride] | 1 to 3.5 µg/mL | 1 to 3.5 µg/mL | < 1 µg/mL | 12.5 to 150 µg/mL
CCc1c(-c2ccc3c(c2)cc(CNCC(C)(C)C)n3C)[nH]c(=O)c(C(=O)O)c1O.Cl [Cpd 237, 5-ethyl-4-hydroxy-6-(1-methyl-2-((neopentylamino)methyl)-1H-indol-5-yl)-2-oxo-1,2-dihydropyridine-3-carboxylic acid hydrochloride] | 1 to 3.5 µg/mL | 3.5 to 12.5 µg/mL | < 1 µg/mL | 12.5 to 150 µg/mL
CCc1c(-c2ccc3c(c2)cc(CNC(C)c2cccnc2)n3C)[nH]c(=O)c(C(=O)O)c1O.Cl (centres unmarked) [Cpd 242, 5-ethyl-4-hydroxy-6-(1-methyl-2-((1-(pyridin-3-yl)ethylamino)methyl)-1H-indol-5-yl)-2-oxo-1,2-dihydropyridine-3-carboxylic acid hydrochloride] | 1 to 3.5 µg/mL | 1 to 3.5 µg/mL | < 1 µg/mL | 12.5 to 150 µg/mL
CCc1c(-c2ccc3c(c2)cc(CNC2CNC2)n3C)[nH]c(=O)c(C(=O)O)c1O.Cl.Cl [Cpd 244, 6-(2-((azetidin-3-ylamino)methyl)-1-methyl-1H-indol-5-yl)-5-ethyl-4-hydroxy-2-oxo-1,2-dihydropyridine-3-carboxylic acid dihydrochloride] | 12.5 to 150 µg/mL | 12.5 to 150 µg/mL | 1 to 3.5 µg/mL | 12.5 to 150 µg/mL
CCc1c(-c2ccc3c(c2)cc(CNC2CN(C)C2)n3C)[nH]c(=O)c(C(=O)O)c1O.Cl.Cl [Cpd 246, 5-ethyl-4-hydroxy-6-(1-methyl-2-((1-methylazetidin-3-ylamino)methyl)-1H-indol-5-yl)-2-oxo-1,2-dihydropyridine-3-carboxylic acid dihydrochloride] | 12.5 to 150 µg/mL | 12.5 to 150 µg/mL | 1 to 3.5 µg/mL | 3.5 to 12.5 µg/mL
CCc1c(-c2ccc3c(c2)cc(CN2CCC(F)(F)CC2)n3C)[nH]c(=O)c(C(=O)O)c1O [Cpd 249, 6-(2-((4,4-difluoropiperidin-1-yl)methyl)-1-methyl-1H-indol-5-yl)-5-ethyl-4-hydroxy-2-oxo-1,2-dihydropyridine-3-carboxylic acid] | 12.5 to 150 µg/mL (≈ 28.1 to 337 µM) | 1 to 3.5 µg/mL (≈ 2.24 to 7.86 µM) | < 1 µg/mL | 12.5 to 150 µg/mL (≈ 28.1 to 337 µM)
CCc1c(-c2ccc3c(c2)cc(CN2CCCCC2C(F)(F)F)n3C)[nH]c(=O)c(C(=O)O)c1O (centres unmarked) [Cpd 258, 5-ethyl-4-hydroxy-6-(1-methyl-2-((2-(trifluoromethyl)piperidin-1-yl)methyl)-1H-indol-5-yl)-2-oxo-1,2-dihydropyridine-3-carboxylic acid] | 12.5 to 150 µg/mL (≈ 26.2 to 314 µM) | 3.5 to 12.5 µg/mL (≈ 7.33 to 26.2 µM) | < 1 µg/mL | 12.5 to 150 µg/mL (≈ 26.2 to 314 µM)
CCc1c(-c2ccc3c(c2)cc(CN2CCCCC2CCOC)n3C)[nH]c(=O)c(C(=O)O)c1O (centres unmarked) [Cpd 259, 5-ethyl-4-hydroxy-6-(2-((2-(2-methoxyethyl)piperidin-1-yl)methyl)-1-methyl-1H-indol-5-yl)-2-oxo-1,2-dihydropyridine-3-carboxylic acid] | 3.5 to 12.5 µg/mL (≈ 7.49 to 26.7 µM) | 3.5 to 12.5 µg/mL (≈ 7.49 to 26.7 µM) | < 1 µg/mL | 12.5 to 150 µg/mL (≈ 26.7 to 321 µM)
CCc1c(-c2ccc3c(c2)cc(CN2CCCCC2CCCOC)n3C)[nH]c(=O)c(C(=O)O)c1O (centres unmarked) [Cpd 260, 5-ethyl-4-hydroxy-6-(2-((2-(3-methoxypropyl)piperidin-1-yl)methyl)-1-methyl-1H-indol-5-yl)-2-oxo-1,2-dihydropyridine-3-carboxylic acid] | 3.5 to 12.5 µg/mL (≈ 7.27 to 26 µM) | 3.5 to 12.5 µg/mL (≈ 7.27 to 26 µM) | < 1 µg/mL | 12.5 to 150 µg/mL (≈ 26 to 311 µM)
CCc1c(-c2ccc3c(c2)cc(CNC2CCNCC2)n3C)[nH]c(=O)c(C(=O)O)c1O [Cpd 263, 5-ethyl-4-hydroxy-6-(1-methyl-2-((piperidin-4-ylamino)methyl)-1H-indol-5-yl)-2-oxo-1,2-dihydropyridine-3-carboxylic acid] | 12.5 to 150 µg/mL (≈ 29.4 to 353 µM) | 12.5 to 150 µg/mL (≈ 29.4 to 353 µM) | 3.5 to 12.5 µg/mL (≈ 8.24 to 29.4 µM) | 12.5 to 150 µg/mL (≈ 29.4 to 353 µM)
CCc1c(-c2ccc3c(c2)cc(CN(CC2CC2)C2CCCNC2)n3C)[nH]c(=O)c(C(=O)O)c1O (centres unmarked) [Cpd 265, 6-(2-(((cyclopropylmethyl)(piperidin-3-yl)amino)methyl)-1-methyl-1H-indol-5-yl)-5-ethyl-4-hydroxy-2-oxo-1,2-dihydropyridine-3-carboxylic acid] | 12.5 to 150 µg/mL (≈ 26.1 to 313 µM) | 1 to 3.5 µg/mL (≈ 2.09 to 7.31 µM) | 1 to 3.5 µg/mL (≈ 2.09 to 7.31 µM) | 12.5 to 150 µg/mL (≈ 26.1 to 313 µM)
CCc1c(-c2ccc3c(c2)cc(CN2CCC[C@H]2CNc2ccccc2)n3C)[nH]c(=O)c(C(=O)O)c1O [Cpd 266, (S)-5-ethyl-4-hydroxy-6-(1-methyl-2-((2-((phenylamino)methyl)pyrrolidin-1-yl)methyl)-1H-indol-5-yl)-2-oxo-1,2-dihydropyridine-3-carboxylic acid] | 12.5 to 150 µg/mL (≈ 25 to 300 µM) | < 1 µg/mL | < 1 µg/mL | 12.5 to 150 µg/mL (≈ 25 to 300 µM)
CCc1c(-c2ccc3c(c2)cc(CN2CCC(c4ccccn4)C2)n3C)[nH]c(=O)c(C(=O)O)c1O (centres unmarked) [Cpd 267, 5-ethyl-4-hydroxy-6-(1-methyl-2-((3-(pyridin-2-yl)pyrrolidin-1-yl)methyl)-1H-indol-5-yl)-2-oxo-1,2-dihydropyridine-3-carboxylic acid] | 1 to 3.5 µg/mL (≈ 2.12 to 7.41 µM) | 3.5 to 12.5 µg/mL (≈ 7.41 to 26.5 µM) | < 1 µg/mL | 12.5 to 150 µg/mL (≈ 26.5 to 317 µM)
